Measurements as given in patent US9695155B2, “Herbicidal substituted pyrimidinyloxy benzene compounds” (E. I. DU PONT DE NEMOURS AND COMPANY, priority 2013, dated 2017).

Columns and labels:
johnsongrass = assay: Test C postemergence; assay type: in vivo, Sorghum halepense; details: for Plant response rating (0 to 100), Johnsongrass: 16 g ai/ha, 0 is no effect, 100 is complete control; for Johnsongrass plant response rating: 31 g ai/ha; for Johnsongrass plant response rating / Plant response rating, Johnsongrass: scale 0 to 100 (0 no effect, 100 complete control)
Summary of the method: (§1)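 Preemergence: seeds sown in a loam soil–sand blend and sprayed with test chemical in a non-phytotoxic solvent mixture containing surfactant. Postemergence: plants at 2 to 18 cm (1- to 4-leaf stage) in peat-based medium, treated with the same formulation. Greenhouse 13 to 15 days, then visual rating 0 (no effect) to 100 (complete control).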

galium = assay: Test C postemergence; assay type: in vivo, Galium aparine; details: for Plant response rating (0 to 100), Galium: 16 g ai/ha, 0 is no effect, 100 is complete control; for Galium plant response rating: 31 g ai/ha; for Galium plant response rating / Plant response rating, Galium: scale 0 to 100 (0 no effect, 100 complete control)
Summary of the method: as §1

giant foxtail = assay: Test A preemergence; assay type: in vivo, Setaria faberii
Summary of the method: (§2)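 Injury scores run from 0, no effect, to 100, complete control, judged by eye against untreated plants roughly 10 days after treatment. Chemicals carried a surfactant in a non-phytotoxic solvent and went onto loam–sand soil preemergence or onto one- to two-leaf seedlings postemergence.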

wheat = assay: Test A preemergence; assay type: in vivo, Triticum aestivum
Summary of the method: as §2

blackgrass = assay: Test C postemergence; assay type: in vivo, Alopecurus myosuroides; details: for Plant response rating (0 to 100), Blackgrass: 16 g ai/ha, 0 is no effect, 100 is complete control; for Blackgrass plant response rating: 31 g ai/ha; for Blackgrass plant response rating / Plant response rating, Blackgrass: scale 0 to 100 (0 no effect, 100 complete control)
Summary of the method: as §1

barnyardgrass [1] = assay: Test C postemergence; assay type: in vivo, Echinochloa crus-galli; details: for Plant response rating (0 to 100), Barnyardgrass: 16 g ai/ha, 0 is no effect, 100 is complete control; for Barnyardgrass plant response rating: 31 g ai/ha, 13 to 15 days; for Barnyardgrass plant response rating / Plant response rating, Barnyardgrass: scale 0 to 100 (0 no effect, 100 complete control)
Summary of the method: as §1

large (Lg) crabgrass = assay: Test C postemergence; assay type: in vivo, Digitaria sanguinalis; details: for Plant response rating (0 to 100), Crabgrass, Large: 16 g ai/ha, 0 is no effect, 100 is complete control; for Crabgrass, Large plant response rating: 31 g ai/ha; for Crabgrass, Large plant response rating / Plant response rating, Crabgrass, Large: scale 0 to 100 (0 no effect, 100 complete control)
Summary of the method: as §1

wild oat = assay: Test C postemergence; assay type: in vivo, Avena fatua; details: for Plant response rating (0 to 100), Oat, Wild: 16 g ai/ha, 0 is no effect, 100 is complete control; for Oat, Wild plant response rating: 31 g ai/ha; for Oat, Wild plant response rating / Plant response rating, Oat, Wild: scale 0 to 100 (0 no effect, 100 complete control)
Summary of the method: as §1

oilseed rape = assay: Test C postemergence; assay type: in vivo, Brassica napus; details: for Plant response rating (0 to 100), Oilseed Rape: 16 g ai/ha, 0 is no effect, 100 is complete control; for Oilseed Rape plant response rating: 31 g ai/ha; for Oilseed Rape plant response rating / Plant response rating, Oilseed Rape: scale 0 to 100 (0 no effect, 100 complete control)
Summary of the method: as §1

waterhemp = assay: Test C postemergence; assay type: in vivo, Amaranthus rudis; details: for Plant response rating (0 to 100), Waterhemp: 16 g ai/ha, 0 is no effect, 100 is complete control; for Waterhemp plant response rating: 31 g ai/ha; for Waterhemp plant response rating / Plant response rating, Waterhemp: scale 0 to 100 (0 no effect, 100 complete control)
Summary of the method: as §1

pigweed [2] = assay: Test A preemergence; assay type: in vivo, Amaranthus retroflexus
Summary of the method: as §2

pigweed [3] = assay: Test A postemergence; assay type: in vivo, Amaranthus retroflexus
Summary of the method: as §2

velvetleaf = assay: Test A postemergence; assay type: in vivo, Abutilon theophrasti
Summary of the method: as §2

lambsquarters = assay: Test C postemergence; assay type: in vivo, Chenopodium album; details: for Plant response rating (0 to 100), Lambsquarters: 16 g ai/ha, 0 is no effect, 100 is complete control; for Lambsquarters plant response rating: 31 g ai/ha; for Lambsquarters plant response rating / Plant response rating, Lambsquarters: scale 0 to 100 (0 no effect, 100 complete control)
Summary of the method: as §1

barnyardgrass [4] = assay: Test A preemergence; assay type: in vivo, Echinochloa crus-galli
Summary of the method: as §2

[5] = postemergence, visual rating, 13 to 15 days
[6] = 125 g ai/ha, postemergence, visual rating
[7] = 500 g ai/ha, 0 to 100 scale where 0 is no effect and 100 is complete control
[8] = 125 g ai/ha, 0 to 100 scale where 0 is no effect and 100 is complete control
[9] = Postemergence, 62 g ai/ha, 13 to 15 days
[10] = 1000 g ai/ha, 0 to 100 scale, 0 no effect, 100 complete control, approx. 10 days
[11] = 1000 g ai/ha, 0 to 100 scale, 0 no effect, 100 complete control

Clc1cnc(Oc2cccc(Cl)c2-n2cc(I)cn2)nc1 [Compound 181]
Plant response rating (0 to 100), Johnsongrass (johnsongrass; postemergence): 0 | Johnsongrass plant response rating (johnsongrass; [5]): 5 | Plant response rating, Johnsongrass (johnsongrass; [6]): 20 | Plant response rating, Johnsongrass (johnsongrass; Postemergence, 62 g ai/ha): 5 | Plant response rating (0 to 100), Galium (galium; postemergence): 60 | Galium plant response rating (galium; [5]): 65 | Plant response rating, Galium (galium; [6]): 80 | Plant response rating, Galium (galium; Postemergence, 62 g ai/ha): 70 | Foxtail, Giant plant response rating (0 to 100 scale) (giant foxtail; 125 g ai/ha): 90 | Foxtail, Giant plant response rating (giant foxtail; [7]): 100 | Wheat plant response rating (0 to 100 scale) (wheat; 125 g ai/ha): 0 | Wheat plant response rating (wheat; [7]): 10 | Plant response rating (0 to 100), Blackgrass (blackgrass; postemergence): 5 | Blackgrass plant response rating (blackgrass; [5]): 5 | Plant response rating, Blackgrass (blackgrass; [6]): 25 | Plant response rating, Blackgrass (blackgrass; Postemergence, 62 g ai/ha): 15 | Plant response rating (0 to 100), Barnyardgrass (barnyardgrass [1]; postemergence): 5 | Barnyardgrass plant response rating (barnyardgrass [1]; postemergence, visual rating): 5 | Plant response rating, Barnyardgrass (barnyardgrass [1]; [6]): 10 | Plant response rating, Barnyardgrass (barnyardgrass [1]; Postemergence, 62 g ai/ha): 10 | Plant response rating (0 to 100), Crabgrass, Large (large (Lg) crabgrass; postemergence): 5 | Crabgrass, Large plant response rating (large (Lg) crabgrass; [5]): 5 | Plant response rating, Crabgrass, Large (large (Lg) crabgrass; [6]): 10 | Plant response rating, Crabgrass, Large (large (Lg) crabgrass; Postemergence, 62 g ai/ha): 10 | Plant response rating (0 to 100), Oat, Wild (wild oat; postemergence): 0 | Oat, Wild plant response rating (wild oat; [5]): 5 | Plant response rating, Oat, Wild (wild oat; [6]): 5 | Plant response rating, Oat, Wild (wild oat; Postemergence, 62 g ai/ha): 5 | Plant response rating (0 to 100), Oilseed Rape (oilseed rape; postemergence): 55 | Oilseed Rape plant response rating (oilseed rape; [5]): 60 | Plant response rating, Oilseed Rape (oilseed rape; [6]): 100 | Plant response rating, Oilseed Rape (oilseed rape; Postemergence, 62 g ai/ha): 60 | Plant response rating (0 to 100), Waterhemp (waterhemp; postemergence): 80 | Waterhemp plant response rating (waterhemp; [5]): 85 | Plant response rating, Waterhemp (waterhemp; [6]): 98 | Plant response rating, Waterhemp (waterhemp; Postemergence, 62 g ai/ha): 85 | Pigweed plant response rating (0 to 100 scale) (pigweed [2]; 125 g ai/ha): 100 | Pigweed plant response rating (pigweed [2]; [7]): 100 | Pigweed plant response rating (pigweed [3]; [8]): 100 | Plant response rating, Pigweed (pigweed [3]; [7]): 100 | Velvetleaf plant response rating (velvetleaf; [8]): 100 | Plant response rating, Velvetleaf (velvetleaf; [7]): 100 | Plant response rating (0 to 100), Lambsquarters (lambsquarters; postemergence): 75 | Lambsquarters plant response rating (lambsquarters; [5]): 100 | Plant response rating, Lambsquarters (lambsquarters; [6]): 100 | Plant response rating, Lambsquarters (lambsquarters; Postemergence, 62 g ai/ha): 100 | Barnyardgrass plant response rating (0 to 100 scale, 0 is no effect, 100 is complete control) (barnyardgrass [4]; 125 g ai/ha): 50 | Barnyardgrass plant response rating (barnyardgrass [4]; [7]): 100

Clc1cnc(Oc2ccccc2-n2cc(Br)nn2)nc1 [Compound 223]
Plant response rating (0 to 100), Johnsongrass (johnsongrass; postemergence): 0 | Johnsongrass plant response rating (johnsongrass; [5]): 0 | Plant response rating, Johnsongrass (johnsongrass; [6]): 5 | Plant response rating, Johnsongrass (johnsongrass; [9]): 0 | Plant response rating (0 to 100), Galium (galium; postemergence): 75 | Galium plant response rating (galium; [5]): 80 | Plant response rating, Galium (galium; [6]): 100 | Plant response rating, Galium (galium; [9]): 80 | Foxtail, Giant plant response rating (giant foxtail; [10]): 100 | Wheat plant response rating (wheat; [10]): 80 | Plant response rating (0 to 100), Blackgrass (blackgrass; postemergence): 0 | Blackgrass plant response rating (blackgrass; [5]): 30 | Plant response rating, Blackgrass (blackgrass; [6]): 0 | Plant response rating, Blackgrass (blackgrass; [9]): 5 | Plant response rating (0 to 100), Barnyardgrass (barnyardgrass [1]; postemergence): 0 | Barnyardgrass plant response rating (barnyardgrass [1]; postemergence, visual rating): 0 | Plant response rating, Barnyardgrass (barnyardgrass [1]; [6]): 5 | Plant response rating, Barnyardgrass (barnyardgrass [1]; Postemergence, 62 g ai/ha): 5 | Plant response rating (0 to 100), Crabgrass, Large (large (Lg) crabgrass; postemergence): 5 | Crabgrass, Large plant response rating (large (Lg) crabgrass; [5]): 5 | Plant response rating, Crabgrass, Large (large (Lg) crabgrass; [6]): 5 | Plant response rating, Crabgrass, Large (large (Lg) crabgrass; [9]): 5 | Plant response rating (0 to 100), Oat, Wild (wild oat; postemergence): 0 | Oat, Wild plant response rating (wild oat; [5]): 0 | Plant response rating, Oat, Wild (wild oat; [6]): 5 | Plant response rating, Oat, Wild (wild oat; [9]): 0 | Plant response rating (0 to 100), Oilseed Rape (oilseed rape; postemergence): 10 | Oilseed Rape plant response rating (oilseed rape; [5]): 50 | Plant response rating, Oilseed Rape (oilseed rape; [6]): 85 | Plant response rating, Oilseed Rape (oilseed rape; [9]): 80 | Plant response rating (0 to 100), Waterhemp (waterhemp; postemergence): 70 | Waterhemp plant response rating (waterhemp; [5]): 60 | Plant response rating, Waterhemp (waterhemp; [6]): 95 | Plant response rating, Waterhemp (waterhemp; [9]): 85 | Pigweed plant response rating (pigweed [2]; [10]): 100 | Plant response rating, Pigweed (pigweed [3]; [11]): 100 | Plant response rating, Velvetleaf (velvetleaf; [11]): 100 | Plant response rating (0 to 100), Lambsquarters (lambsquarters; postemergence): 60 | Lambsquarters plant response rating (lambsquarters; [5]): 75 | Plant response rating, Lambsquarters (lambsquarters; [6]): 95 | Plant response rating, Lambsquarters (lambsquarters; [9]): 75 | Barnyardgrass plant response rating (barnyardgrass [4]; [10]): 100
